Assay results: PubChem BioAssay (NCI)
Several values for one entry are separate records, joined by “and”; a condition that tells them apart may be missing. Equal values may be shown once.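 In this assay, cells in 96-well plates receive the compound at five concentrations for 48 hours. Endpoints are linearly interpolated between the surrounding concentrations. Here, GI50 denotes the concentration required for 50% inhibition of growth. TGI: concentration producing complete growth inhibition.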

Tests used:
Assay in all cases: NCI-60 cell line screen, 48 h
[1] = system: MALME-3M melanoma
[2] = system: A549 NSCLC
[3] = system: CCRF-CEM leukemia
[4] = system: UO-31 renal
[5] = system: SF-268 CNS
[6] = system: HOP-62 NSCLC
[7] = system: HCT-116 colon
[8] = system: UACC-62 melanoma
[9] = system: NCI-H460 lung
[10] = system: OVCAR-3 ovarian
[11] = system: NCI-H226 lung
[12] = system: SN12C renal
[13] = system: MOLT-4 leukemia
[14] = system: SNB-19 CNS
[15] = system: MDA-MB-435
[16] = system: RXF 393 renal
[17] = system: U251 CNS
[18] = system: PC-3 prostate
[19] = system: NCI-H522 lung
[20] = system: MDA-N
[21] = system: ACHN renal
[22] = system: SK-MEL-28 melanoma
[23] = system: LOX IMVI melanoma
[24] = system: SW-620 colon
[25] = system: A498 renal
[26] = system: DU-145 prostate
[27] = system: HCC-2998 colon
[28] = system: HCT-15 colon
[29] = system: SNB-75 CNS
[30] = system: SF-539 CNS
[31] = system: SF-295 CNS
[32] = system: UACC-257 melanoma
[33] = system: MCF7 breast
[34] = system: OVCAR-5 ovarian
[35] = system: T-47D breast
[36] = system: KM12 colon
[37] = system: OVCAR-4 ovarian
[38] = system: COLO 205 colon
[39] = system: SK-MEL-5 melanoma
[40] = system: HS 578T breast
[41] = system: HL-60(TB) leukemia
[42] = system: TK-10 renal
[43] = system: RPMI-8226 leukemia
[44] = system: HOP-92 NSCLC
[45] = system: M14 melanoma
[46] = system: NCI/ADR-RES ovarian
[47] = system: MDA-MB-231 breast
[48] = system: SR leukemia
[49] = system: CAKI-1 renal
[50] = system: 786-0 renal
[51] = system: SK-MEL-2 melanoma
[52] = system: K-562 leukemia
[53] = system: IGROV1 ovarian
[54] = system: OVCAR-8 ovarian
[55] = system: HT29 colon
[56] = system: EKVX NSCLC
[57] = system: SK-OV-3 ovarian
[58] = system: NCI-H23 lung
[59] = system: BT-549 breast

With `CC(=NNC(=S)Nc1ccc(C)cc1)c1cccc(C(C)=NNC(=S)Nc2ccc(C)cc2)n1` the TGI [1] was 46.9 µM, the TGI [2] was greater than 100 µM and the TGI [3] was greater than 100 µM. It also gave a TGI [4] greater than 100 µM, a TGI [5] greater than 100 µM and a TGI [6] of 68.7 µM. It also gave a TGI [7] of 45.3 µM, a TGI [8] greater than 100 µM and a TGI [9] greater than 100 µM. It also gave a TGI [10] of 14.3 µM, a TGI [11] of 73.6 µM and a TGI [12] greater than 100 µM. For the same compound, the TGI [13] was 22.9 µM, the TGI [14] was greater than 100 µM and the TGI [15] was greater than 100 µM. For the same compound, the TGI [16] was 72 µM, the TGI [17] was 97 µM and the TGI [18] was greater than 100 µM. The TGI [19] was 63.7 µM, the TGI [20] was greater than 100 µM and the TGI [21] was 95.2 µM. The TGI [22] was greater than 100 µM, the TGI [23] was 91.7 µM and the TGI [24] was 59.8 µM. It also gave a TGI [25] of 80.9 µM, a TGI [26] greater than 100 µM and a TGI [27] greater than 100 µM. For the same compound, the TGI [28] was greater than 100 µM, the TGI [29] was 85 µM and the TGI [30] was 28.1 µM. It also gave a TGI [31] of 71.7 µM, a TGI [32] of 69.7 µM and a TGI [33] greater than 100 µM. It also gave a TGI [34] greater than 100 µM, a TGI [35] greater than 100 µM and a TGI [36] greater than 100 µM. It also gave a TGI [37] of 89.1 µM, a TGI [38] of 43.8 µM and a TGI [39] of 38.7 µM. For the same compound, the TGI [40] was greater than 100 µM, the TGI [41] was 15.7 µM and the TGI [42] was greater than 100 µM. It also gave a TGI [43] of 85.8 µM, a TGI [44] greater than 100 µM and a TGI [45] of 47.7 µM. For the same compound, the TGI [46] was 58.8 µM, the TGI [47] was greater than 100 µM and the TGI [48] was 27.1 µM. The TGI [49] was 40.3 µM, the TGI [50] was greater than 100 µM and the TGI [51] was greater than 100 µM. It also gave a TGI [52] of 66.3 µM, a TGI [53] of 75.4 µM and a TGI [54] of 34.5 µM. It also gave a TGI [55] greater than 100 µM, a TGI [56] greater than 100 µM and a TGI [57] of 97.6 µM. The TGI [58] was greater than 100 µM.
`CCc1c(C)c(C#N)c(=S)n(C2OC(COC(C)=O)C(OC(C)=O)C(OC(C)=O)C2OC(C)=O)c1C` (stereo not given) showed a TGI [1] greater than 100 µM, a TGI [2] greater than 100 µM and a TGI [3] greater than 100 µM. The GI50 [4] was 11 µM and 3.57 µM, the TGI [4] was 92.2 µM and 14.5 µM and the TGI [5] was greater than 100 µM. The GI50 [6] was 45.4 µM and 5.33 µM, the TGI [6] was > 100 µM and 21.8 µM and the GI50 [7] was > 100 µM and 21.7 µM. The TGI [7] was > 100 µM and 45.5 µM, the GI50 [8] was > 100 µM and 47.6 µM and the TGI [8] was greater than 100 µM. For the same compound, the TGI [9] was greater than 100 µM, the TGI [10] was greater than 100 µM and the GI50 [11] was > 100 µM and 38.2 µM. It also gave a TGI [11] greater than 100 µM, a TGI [12] greater than 100 µM and a TGI [13] greater than 100 µM. For the same compound, the GI50 [14] was > 100 µM and 21.5 µM, the TGI [14] was > 100 µM and 93 µM and the TGI [15] was greater than 100 µM. For the same compound, the TGI [16] was > 100 µM and 29.1 µM, the GI50 [17] was > 100 µM and 26.9 µM and the TGI [17] was greater than 100 µM. The TGI [18] was > 100 µM and 27.9 µM, the TGI [19] was greater than 100 µM and the TGI [20] was greater than 100 µM. For the same compound, the GI50 [21] was > 100 µM and 18.9 µM, the TGI [21] was greater than 100 µM and the TGI [22] was greater than 100 µM. For the same compound, the TGI [23] was greater than 100 µM, the TGI [24] was greater than 100 µM and the GI50 [25] was > 100 µM and 30.2 µM. The TGI [25] was > 100 µM and 92.4 µM, the TGI [26] was greater than 100 µM and the TGI [27] was greater than 100 µM. For the same compound, the TGI [28] was greater than 100 µM, the GI50 [30] was > 100 µM and 31.4 µM and the TGI [30] was greater than 100 µM. The GI50 [31] was > 100 µM and 23 µM, the TGI [31] was greater than 100 µM and the TGI [32] was greater than 100 µM. The TGI [33] was greater than 100 µM, the GI50 [34] was > 100 µM and 45.9 µM and the TGI [34] was greater than 100 µM. For the same compound, the TGI [35] was greater than 100 µM, the TGI [36] was greater than 100 µM and the TGI [37] was greater than 100 µM. For the same compound, the TGI [38] was greater than 100 µM, the TGI [39] was greater than 100 µM and the TGI [41] was greater than 100 µM. For the same compound, the GI50 [42] was 92.8 µM and 26.3 µM, the TGI [42] was > 100 µM and 69.4 µM and the TGI [45] was greater than 100 µM. The TGI [46] was greater than 100 µM, the GI50 [47] was > 100 µM and 13 µM and the TGI [47] was > 100 µM and 73.9 µM. For the same compound, the TGI [48] was greater than 100 µM, the TGI [49] was greater than 100 µM and the TGI [50] was > 100 µM and 41.5 µM. It also gave a TGI [51] of 32.9 µM, a TGI [52] greater than 100 µM and a TGI [53] greater than 100 µM. For the same compound, the TGI [54] was greater than 100 µM, the TGI [55] was greater than 100 µM and the TGI [56] was greater than 100 µM. The GI50 [57] was 63.4 µM and 20.8 µM, the TGI [57] was > 100 µM and 84.6 µM and the TGI [58] was greater than 100 µM.
For `O=C1O/C(=C(/Cl)c2cccc3ccccc23)c2ccccc21`, the TGI [1] was greater than 100 µM, the TGI [2] was greater than 100 µM and the TGI [4] was greater than 100 µM. The TGI [5] was greater than 100 µM, the TGI [6] was greater than 100 µM and the TGI [7] was greater than 100 µM. For the same compound, the TGI [8] was greater than 100 µM, the TGI [9] was greater than 100 µM and the TGI [10] was greater than 100 µM. The TGI [12] was greater than 100 µM, the TGI [13] was greater than 100 µM and the TGI [14] was greater than 100 µM. The TGI [15] was greater than 100 µM, the TGI [16] was greater than 100 µM and the TGI [17] was greater than 100 µM. For the same compound, the TGI [18] was greater than 100 µM, the TGI [19] was greater than 100 µM and the TGI [20] was greater than 100 µM. For the same compound, the TGI [22] was greater than 100 µM, the TGI [24] was greater than 100 µM and the TGI [25] was greater than 100 µM. The TGI [26] was greater than 100 µM, the TGI [27] was greater than 100 µM and the TGI [28] was greater than 100 µM. It also gave a TGI [29] of 55.2 µM, a TGI [30] greater than 100 µM and a TGI [31] greater than 100 µM. It also gave a TGI [32] greater than 100 µM, a TGI [33] greater than 100 µM and a TGI [34] greater than 100 µM. It also gave a TGI [36] greater than 100 µM, a TGI [37] greater than 100 µM and a TGI [59] greater than 100 µM. For the same compound, the TGI [38] was greater than 100 µM, the TGI [39] was greater than 100 µM and the TGI [40] was greater than 100 µM. For the same compound, the TGI [41] was greater than 100 µM, the TGI [42] was greater than 100 µM and the TGI [43] was greater than 100 µM. The TGI [44] was greater than 100 µM, the TGI [45] was greater than 100 µM and the TGI [48] was greater than 100 µM. The TGI [49] was greater than 100 µM, the TGI [50] was greater than 100 µM and the TGI [52] was greater than 100 µM. The TGI [53] was greater than 100 µM, the TGI [54] was greater than 100 µM and the TGI [55] was greater than 100 µM. For the same compound, the TGI [56] was greater than 100 µM, the TGI [57] was greater than 100 µM and the TGI [58] was greater than 100 µM.
`COc1cc(/C=C2\CN(C)CC3=C2NC(=S)NC3c2cc(OC)c(OC)c(OC)c2)cc(OC)c1OC` (stereo not given) showed a TGI [1] greater than 100 µM, a TGI [2] greater than 100 µM and a TGI [5] greater than 100 µM. For the same compound, the TGI [6] was greater than 100 µM, the TGI [8] was greater than 100 µM and the TGI [9] was greater than 100 µM. For the same compound, the TGI [10] was greater than 100 µM, the TGI [12] was greater than 100 µM and the TGI [13] was greater than 100 µM. For the same compound, the TGI [18] was greater than 100 µM, the TGI [19] was greater than 100 µM and the TGI [20] was greater than 100 µM. The TGI [21] was greater than 100 µM, the TGI [23] was greater than 100 µM and the TGI [24] was greater than 100 µM. For the same compound, the TGI [26] was greater than 100 µM, the TGI [28] was greater than 100 µM and the TGI [29] was greater than 100 µM. It also gave a TGI [31] greater than 100 µM, a TGI [32] greater than 100 µM and a TGI [35] greater than 100 µM. For the same compound, the TGI [37] was greater than 100 µM, the TGI [38] was greater than 100 µM and the TGI [39] was 65.7 µM. For the same compound, the TGI [40] was greater than 100 µM, the TGI [44] was greater than 100 µM and the TGI [45] was greater than 100 µM. For the same compound, the TGI [46] was greater than 100 µM, the TGI [47] was greater than 100 µM and the TGI [48] was greater than 100 µM. For the same compound, the TGI [50] was greater than 100 µM, the TGI [51] was greater than 100 µM and the TGI [53] was greater than 100 µM. It also gave a TGI [54] greater than 100 µM, a TGI [55] greater than 100 µM and a TGI [56] greater than 100 µM. It also gave a TGI [57] greater than 100 µM.
